Assay results from the NIST ThermoML archive (doi:10.1016/j.jct.2012.05.013).
± gives the expanded uncertainty stated by the source.

Key:
[1] = for vapor or sublimation pressure: Liquid, Closed cell (Static) method
[2] = Molar enthalpy of transition or fusion; conditions: Crystal; DSC
[3] = molar enthalpy of vaporization or sublimation; conditions: 298.15 K; Crystal; Static calorimetry

CN(C)c1cccc2cccc(N(C)C)c12 [1,8-bis(dimethylamino)naphthalene]
[1]
Conditions	vapor or sublimation pressure [kPa]
322.96 K	0.00189 ± 0.00013
327.93 K	0.00285 ± 0.00016
332.9 K	0.00428 ± 0.0002
337.88 K	0.00638 ± 0.00028
342.85 K	0.00921 ± 0.00038
347.82 K	0.01325 ± 0.00052
352.78 K	0.01867 ± 0.0006
357.73 K	0.02622 ± 0.00072
362.69 K	0.03643 ± 0.00088
367.65 K	0.0494 ± 0.0011
372.6 K	0.06696 ± 0.0014
377.55 K	0.08952 ± 0.0017
382.51 K	0.1184 ± 0.0022

Conditions	Triple point temperature [K]
[1], Crystal, DTA	322.2 ± 1.8

Conditions	Molar enthalpy of transition or fusion [kcal/mol]	molar enthalpy [kcal/mol]
[2]	4.18 ± 0.311	–
[3]	–	22.4 ± 0.55
